Experimental data from patent publication US4301313A, “Halogenated ethynyl biphenyls” (Eli-Lilly and Company, priority 1974, dated 1981).

Tests used:
[1] = adjuvant-induced arthritis test (paw volume); format: in vivo, rat (male albino); conditions: rat, oral
[2] = carrageenin-induced hind paw inflammation; format: in vivo; conditions: Rattus norvegicus
Description: Representative compounds were also evaluated for anti-inflammatory activity in the test method described by C. A. Winter at 111 Proc. Soc. Exp. Biol. Med., 544 (1962). In this method, inflammation is created by injecting carrageenin into the hind paw of rats. Test compounds are administered prior to injection to determine percent inhibition of the subsequent inflammation, in comparison with control animals.

[3] = analgesic activity, acetic acid-induced writhing; format: in vivo, mouse (albino male); conditions: mouse, p.o., dose reducing writhing frequency by 50%; 30, 90, 180 minutes after administration
Description: Representative compounds were also evaluated for analgesic activity. The evaluation was conducted by using acetic acid-induced writhing in mice as the pain model. Clinically effective analgesis are effective when tested in this model: see Koster et al., "Acetic Acid for Analgesic Screening," 18 Fed. Proc. 412 (1959).
In a method similar to that reported by Koster et al., standard strain albino male mice weighing 20-22 grams were fasted overnight. The respective compound or vehicle (as control) was administered by gastric lavage (p.o.). Each compound was administered in an aqueous suspension of 1% methylcellulose in water. […] At 30, 90, and 180 minutes after administration, writhing was induced by the intraperitoneal administration of 55 mg./kg. of acetic acid (0.55%). Each treatment group consisted of 5 mice and separate groups were examined at each observation time. The total number of writhes for the treatment group were counted in a 10-minute observation period starting 5 minutes after the acetic acid administration. The treatment totals were compared to controls and a percent inhibition calculated as follows: [formula] […] An ED50, which represented the dose that would reduce the writhing frequency by 50%, was estimated from a dose-reponse curve of three or more points. A dose range was reported if only two points were availale for the dose response curve and they bracketed the 50% level. If data was available at 100 mg./kg., only, then the estimated ED50 was reported simply as less than 100 (<100).

[4] = ultraviolet-induced erythema blocking test, oral (modified Winder method); format: in vivo, guinea pig (male albino); conditions: Cavia porcellus, guinea pig, weighted scores 1.0-2.5 h after UV, dose which provides 50% inhibition
Description: The compounds of the present invention were evaluated for anti-inflammatoryactivity by the ultraviolet-induced erythema blocking test. The test procedures were a modification of the Winder method (Winder, C. V.; Wax, J.; Burr, V.; Been, M.; and Posiere, C. E.: A Study of Pharmacological Influences on Ultraviolet Erythema in Guinea Pigs. Arch. Int. Pharmacodyn. 116: 261, 1958). Male albino guinea pigs weighing 240-300 gm. were used. The hair on the back was clipped and chemically depilated 15-18 hours before each experiment. The animals were fasted overnight, and on the day of the experiment, were randomized and placed in clear plastic partitioned holders 10×20 cm. wide and 15 cm. high.
The compounds to be tested were suspended in 1% methyl cellulose in water, utilizing a tissue homogenizer. The suspensions were administered orally in a volume of 2.0 ml./kg. of body weight. Control animals received an equal amount of the vehicle.
The source of ultraviolet light was a Hanovia lamp (Kromayer-Model 10). A notebook reinforcement ring was placed upon the lens of the lamp to provide an area of contrast for grading purposes. The lens was then placed in contact with the skin of the guinea pig's back. Exposure time to UV was for a period of 4 seconds. Beginning one hour after exposure and thereafter at half-hour intervals for another 11/2 hours, the degree of resulting erythema was graded by an arbitrary scoring system based upon the degree of contrast and redness formed. Anti-inflammatory agents delay the development of the erythema and have their greatest effect at the initial grading periods. The scores were, therefore, weighted by factors of 4, 3, 2, and 1 at the 1.0, 1.5, 2.0, and 2.5 hour scoring times, respectively. The erythema was graded as follows:
Total scores from each treatment group of four guinea pigs were compared to the scores of the control group. The percent inhibition was calculated as follows: [formula] In the case of compounds showing inhibition, retesting was carried out at a plurality of doses to enable calculation of an ED50 for each such compound. "ED50 " designates that dose which provides 50% inhibition. Calculation of the ED50 was either by a standard linear regression method or by estimation from a dose-response curve of three or more points. The compounds so tested and their ED50 s were as follows: […]

Row | Compound | inhibition in vivo at 10 mg/kg [2] | inhibition in vivo at 50 mg/kg [2] | Estimated ED50 [3] | ED50 [4] | also measured
1 | (2-(2,5-difluorophenyl)phenyl)acetylene | – | – | – | – | Percent Inhibition of Volume Increase, Day 7 ([1]; dose 25 (unit not given)): 38%; Percent Inhibition of Volume Increase, Day 14 ([1]; dose 25 (unit not given)): 15%
2 | C#Cc1ccc(-c2ccccc2C)cc1 [(4-(o-tolyl)phenyl)acetylene, (4-(o-Tolyl)phenyl)acetylene] | 6% | 48% | 35 mg/kg | 0.9 mg/kg | inhibition in vivo at 3 mg/kg [2]: 16%; inhibition in vivo at 30 mg/kg [2]: 53%
3 | C#Cc1ccc(-c2ccccc2)c(F)c1 [(3-fluoro-4-phenylphenyl)acetylene, (3-Fluoro-4-phenylphenyl)acetylene] | – | – | 10 mg/kg | 0.5 mg/kg | –
4 | C#Cc1ccc(-c2c(F)cccc2F)cc1 [(4-(2,6-difluorophenyl)phenyl)acetylene, (4-(2,6-Difluorophenyl)phenyl)acetylene] | 34% | 49% | < 100 mg/kg | 12 mg/kg | inhibition in vivo at 3 mg/kg [2]: 7%; inhibition in vivo at 30 mg/kg [2]: 37%
5 | C#Cc1ccc(-c2cccc(F)c2)cc1 [(4-(3-fluorophenyl)phenyl)acetylene, (4-(3-Fluorophenyl)phenyl)acetylene] | 17% | – | 35 mg/kg | 3 mg/kg | –
6 | C#Cc1ccc(-c2ccccc2)cc1C [(2-methyl-4-phenylphenyl)acetylene] | – | – | 60 mg/kg | 20 mg/kg | –
7 | C#Cc1ccc(Oc2ccccc2)c(C)c1 [(3-methyl-4-phenoxyphenyl)acetylene, (3-Methyl-4-phenoxyphenyl)acetylene] | 16% | – | < 100 mg/kg | 10 mg/kg | –
8 | C#Cc1ccc(Oc2ccccc2)cc1C [(2-methyl-4-phenoxyphenyl)acetylene, (2-Methyl-4-phenoxyphenyl)acetylene] | – | – | < 100 mg/kg | 8 mg/kg | inhibition in vivo at 25 mg/kg [2]: 33%
9 | C#Cc1cccc(Oc2ccccc2F)c1 [(3-(2-fluorophenoxy)phenyl)acetylene, (3-(2-Fluorophenoxy)phenyl)acetylene] | – | 32% | – | 12 mg/kg | –
10 | C#Cc1ccc(-c2ccccc2)cc1OC [(2-methoxy-4-phenylphenyl)acetylene, (2-Methoxy-4-phenylphenyl)acetylene] | 7% | 51% | – | 39 mg/kg | inhibition in vivo at 1 mg/kg ([2]; 1 mg./kg.): 25%
11 | C#Cc1ccc(-c2ccccc2)c(OC)c1 [(3-methoxy-4-phenylphenyl)acetylene, (3-Methoxy-4-phenylphenyl)acetylene] | – | – | – | 0.6 mg/kg | –
12 | C#Cc1ccc(-c2ccc(F)cc2F)cc1 [(4-(2,4-difluorophenyl)phenyl)acetylene, (4-(2,4-Difluorophenyl)phenyl)acetylene] | – | – | 4 mg/kg | 4 mg/kg | inhibition in vivo at 25 mg/kg [2]: 31%
13 | C#Cc1ccc(-c2cc(F)ccc2F)cc1 [(4-(2,5-difluorophenyl)phenyl)acetylene, (4-(2,5-Difluorophenyl)phenyl)acetylene] | – | – | 10 mg/kg | 4.4 mg/kg | inhibition in vivo at 25 mg/kg [2]: 43%
14 | C#Cc1ccc(OCCCC)cc1C [(2-methyl-4-n-butoxyphenyl)acetylene, (2-Methyl-4-n-butoxyphenyl)acetylene] | – | – | – | 35 mg/kg | inhibition in vivo at 25 mg/kg [2]: 9%
15 | C#Cc1ccc(Oc2ccccc2F)cc1 [(4-(2-fluorophenoxy)phenyl)acetylene, (4-(2-Fluorophenoxy)phenyl)acetylene] | 45% | – | < 100 mg/kg | 16.5 mg/kg | inhibition in vivo at 3 mg/kg [2]: 28%; inhibition in vivo at 30 mg/kg [2]: 68%
16 | C#Cc1ccc(-c2ccccc2)c(Cl)c1 [(3-chloro-4-phenylphenyl)acetylene, (3-Chloro-4-phenylphenyl)acetylene] | 62% | – | 30 mg/kg | 0.033 mg/kg | inhibition in vivo at 0.3 mg/kg ([2]; 0.3 mg./kg.): 23%; inhibition in vivo at 3 mg/kg [2]: 41%; Percent Inhibition of Volume Increase, Day 7 ([1]; dose 0.1 (unit not given)): 21%; Percent Inhibition of Volume Increase, Day 14 ([1]; dose 0.1 (unit not given)): 36%; Percent Inhibition of Volume Increase, Day 7 ([1]; dose 0.3 (unit not given)): 56%; Percent Inhibition of Volume Increase, Day 14 ([1]; dose 0.3 (unit not given)): 50%; Percent Inhibition of Volume Increase, Day 7 ([1]; dose 1 (unit not given)): 34%; Percent Inhibition of Volume Increase, Day 14 ([1]; dose 1 (unit not given)): 41%; Percent Inhibition of Volume Increase, Day 7 ([1]; dose 3 (unit not given)): 30%; Percent Inhibition of Volume Increase, Day 14 ([1]; dose 3 (unit not given)): 45%
17 | C#Cc1ccc(-c2ccccc2)c(C)c1 [(3-methyl-4-phenylphenyl)acetylene, (3-Methyl-4-phenylphenyl)acetylene] | 56% | 66% | 50 mg/kg | 0.09 mg/kg | inhibition in vivo at 3 mg/kg [2]: 37%; inhibition in vivo at 30 mg/kg [2]: 56%
18 | C#Cc1cc(C)c(Oc2ccccc2)c(C)c1 [(3,5-dimethyl-4-phenoxyphenyl)acetylene, (3,5-Dimethyl-4-phenoxyphenyl)acetylene] | – | 29% | < 100 mg/kg | 11 mg/kg | –
19 | C#Cc1ccc(F)c(-c2ccccc2F)c1 [(4-Fluoro-3-(2-fluorophenyl)phenyl)acetylene] | 23% | 45% | – | 23 mg/kg | inhibition in vivo at 3 mg/kg [2]: 13%; inhibition in vivo at 30 mg/kg [2]: 43%
20 | C#Cc1cccc(-c2ccccc2)c1 [3-biphenylylacetylene, 3-Biphenylylacetylene] | – | 32% | 50 to 100 mg/kg | 7 mg/kg | –
21 | C#Cc1ccc(C2CCCCC2)c(Cl)c1 [(3-chloro-4-cyclohexylphenyl)acetylene, (3-Chloro-4-cyclohexylphenyl)acetylene] | – | – | < 100 mg/kg | 1 mg/kg | –
22 | C#Cc1cccc(Oc2ccccc2)c1 [(3-phenoxyphenyl)acetylene, (3-Phenoxyphenyl)acetylene] | 7% | – | < 100 mg/kg | 13 mg/kg | –
23 | C#Cc1ccc(-c2ccccc2Cl)cc1 [(4-(2-chlorophenyl)phenyl)acetylene, (4-(2-Chlorophenyl)phenyl)acetylene] | – | 52% | 20 to 100 mg/kg | 0.8 mg/kg | –
